Entries after “also recorded” stand apart in the source; their conditions may differ. Like-named read-outs stand apart in the source and are kept apart here.
Tests used:
[1] = test system: Rat alveolar NR8383 cells; test: NR8383 cell proliferation assay (Presto Blue); format: cell-based
Protocol: Rat alveolar NR8383 cells were harvested when the monolayer was 50-90% confluent (use passage 5-11). Because the NR8383 cells include both adherent and non-adherent cells, media was transferred to a 50 mL Falcon tube. To obtain the cells remaining in the flask, 2 mL of plain media was added, and the remaining cells were scraped out of the 75 cm^2 flask with a cell scraper and added to the 50 mL tube. […] SH30071.03)+1×Pen-Strep (Life Technologies, cat #: 15410-122)). Cell number was determined using a hemacytometer. […] Measurements and calculations were made as described above for the CHO-K1 cells.

CHO-K1 cells = test: CHO-K1 cell proliferation assay (Presto Blue)
Protocol: CHO-K1 cells were harvested when the cell monolayer was 50-90% confluent (use passage 4-11). Media was aspirated out of the flask, and cells were rinsed with 2 mL of F12 media. Next, 1 mL of pre-warmed (37° C.) 0.25% trypsin-EDTA (Life Technologies, Cat #: 25300054) was added, and cells were dislodged from the flask by tapping it on the side. Complete growth media (F12 (Life Technologies, Cat #: 31765092)+10% FBS (Hyclone, Cat #: SH30071.03)+1× Pen-Strep (Life Technologies, cat #15140-122) was then added at a volume of 10 mL. Cells were centrifuged at 250×g for 5 minutes at room temperature, and the media was aspirated. The cell pellet was resuspended in 10 mL complete growth media. Cell number was determined using a hemacytometer. Cells were then seeded at 2000 cells per well of a 96-well plate in 100 μL of complete growth media. The plate was incubated overnight at 37° C. and 5% CO2 in a water-jacketed incubator.
The next day, 80 μL of fresh complete media was added to each well, and CHO-K1 cells were challenged with treprostinil compound and composition treatments. The working solutions were prepared at 10× concentration, and following 2 fold serial dilutions, 20 μL aliquots were added per well to arrive at a final 1× concentration. Following a 48 hour incubation at 37° C. and 5% CO2 in a water-jacketed incubator, the inhibitory effect on cell proliferation was determined. Plates were analyzed using 20 μL of Presto Blue reagent (Life Technologies, cat #: A13262) per well. The reagent was mixed, and plates were incubated for 1 hour at 37° C. and 5% CO2 in a water-jacketed incubator. Plates were read using either a CytoFluor Series 4000 (PerSeptive BioSystems) or Synergy Neo microplate reader (BioTek) with emission λ: 590 nm and excitation λ: 560 nm.
at concentrations ranging from 0.55 μM to 125 μM. Following a 48 hour incubation period, the inhibitory effect of the treprostinil derivative compositions on cell proliferation was determined.
C2, C3, C4, C5, C6, C8, C10 or Cu straight chain alkyl, at dosages ranging from 0.098 μM to 25 μM. Following a 48 hour incubation period, the inhibitory effect on cell proliferation was determined.
Following a 72 hour incubation period, the inhibitory effect on cell proliferation was determined. Following a 48 hour incubation period, the inhibitory effect on cell proliferation was determined.
Similarly, CHO-K1 cells were challenged with the treprostinil compositions T612 (R2=C2), T613 (R2=C8) at concentrations ranging from 1.41 μM to 180 μM.

esterase = test: Esterase mediated conversion of treprostinil compounds to treprostinil; format: in vitro ADME; details: incubation with esterase at 37° C., 1 hour (FIG. 28, 30)
Protocol: A set of studies was conducted to determine the conversion kinetics to treprostinil of linear treprostinil compounds versus various branched treprostinil compounds. 0.4 mM of linear C8-TR or branched treprostinil compounds 2-dimethyl-1-propanyl-TR, 3,3-dimethyl-1-butanyl-TR, 2-ethyl-1-butanyl-TR, 5-nonanyl-TR, or 3-pentanyl-TR (see below for structures) were incubated with 0.2 U esterase at 37° C. for 1 hour, and the conversion (% of total) was calculated at 0.25, 0.5, 0.75, or 1 hour incubation time. • C8-TR (i.e., the compound of Formula (A) wherein
The conversion is relative to the C8-TR compound and conversion was measured at 1 hr. post esterase incubation. • C8-TR (i.e., the compound of Formula (A) wherein
Conversion was measured at 1 hr. post esterase incubation. • 4C7-TR (i.e., the compound of Formula (A) wherein

[2] = Particle size characterization of treprostinil compositions (QELS); format: physicochemical; details: particles of compositions comprising the alkyl ester, FIG. 2
Protocol: All particle size measurements were performed using a Wyatt Technology Mobius™ Zeta Potential/Particle Sizing Instrument in Quasi-elastic light scattering (QELS) mode. Composition aliquots were diluted 10-fold in pre-filtered (0.02 μm pore filter) ultrapure of deionized H2O. Light scattering data was collected and converted into particle size and size distribution using Dynamics® v. […] Reported average particle size diameter is based on the cumulants model, which mathematically fits particle diffusion constants (determined by the raw scattering intensities of particles in a suspension) to obtain the particle size mean and a distribution of particle sizes around the mean diameter.
Particle uniformity was determined using the software-calculated polydispersity (% PD). Polydispersity is defined as the standard deviation of the particle size distribution from the mean particle size value. % PD normalizes the polydispersity to the mean diameter by dividing by the mean size and multiplying by 100. These parameters indicate whether a particle suspension has one or more size populations of particles (monomodal versus multimodal). […]
Dynamics® polydispersity parameter represents a monodisperse population of particles if % PD≤15. A calculated % PD≥57% represents a polydisperse population of particles.

EP2 prostanoid receptor = target: T1, EP2 prostanoid receptor (Homo sapiens, UniProt P43116); test: GloSensor cAMP assay in CHO-K1 cells co-transfected with the EP2 receptor; format: cell-based; details: for ranking of activity of the treprostinil compounds: kinetic profile, 10 μM and 5 μM, FIG. 21
T1 construct: host or cells: CHO-K1
Excerpt: cAMP is a second messenger involved in signal transduction of G-protein coupled receptors (GPCRs) acting through Gα-s and Gα-i proteins. Because the treprostinil receptor is a GPCR, the assay provides an indication of whether the respective prostacyclin compound (or metabolite thereof) binds its receptor and activates the GPCR cell signaling cascade. The GloSensorTM assay harnesses a genetically modified form of firefly luciferase into which a cAMP-binding protein moiety has been inserted. Upon binding of cAMP, a conformational change is induced leading to increased light output. The EP2 prostanoid receptor was co-transfected with the GloSensorTM plasmid (Promega) into CHO-K1 cells as follows. CHO-K1 cells were harvested when the monoloayer was at 50-90% confluence. First, cells were washed with 5 mL PBS. […] The media was aspirated, and the cell pellet was resuspended in 10 mL of growth media. Cell number was determined using a hemacytometer. Each well of a culture treated 96 well flat bottom plate (Costar, Cat #: 3917) was seeded with 1×10^4 cells per 100 μL antibiotic-free growth media. […] For small scale transfections of up to 20 wells, the pGLoSensor-22F cAMP plasmid (Promega, Cat #: E2301) (2 μg): (EP2) (10 ng) (Origene, Cat #: SC126558):pGEM-3Zf(+) (10 ng) (Promega, Cat #: P2271) ratio was diluted to a final concentration of 12.6 ng/μL (total plasmid) in Opti-MEM I reduced-serum medium (Life Technologies, Cat #: 1985062). Next, 6 μL of FuGENE HD transfection reagent (Promega, Cat #: E2311) was added to 160 μL of diluted plasmid and mixed carefully by gentle pipetting. The complex was incubated at room temperature for 0 to 10 minutes, and then 8 μL of the complex was added per well of a 96 well white assay plate (Costar, Cat #: 3917) and gently mixed without disturbing the cell monolayer. […] Following incubation, cells were treated and analyzed. For larger scale transfections, the aforementioned steps were scaled up accordingly, and cells were frozen following the last incubation. In order to prepare frozen transfected CHO-K1 cells, the media was aspirated from culture flasks and cells were rinsed with 5 mL PBS. […] Cell number was determined using a hemacytometer. The media was aspirated, and the cell pellet was resuspended in freezing media (Millipore, cat #: S-002-5F) at 2.5×10^6 cells/vial. Transfected cells were incubated overnight at -80° C. before transfer to liquid nitrogen for long term storage. […] In preparation for cAMP measurement, the cells were equilibrated with the GloSensor cAMP reagent prior to treatment. For equilibration, the medium was carefully removed from the individual well. Next, 100 μL of equilibration medium ([…] of Glosensor Reagent stock solution (Promega, Cat #: E291), 10% FBS (Hyclone, Cat #: SH30071.03) and 88% CO2 independent medium (Life Technologies, Cat #: 18045088)) was added per well of the 96-well plate, and added to the side of each well. The plate was then incubated for 2 hours at room temperature. A first pre-read measurement was taken using a microplate reader (MicroLumat Plus). Plates were incubated for an additional 10 minutes at room temperature, followed by a second pre-read measurement. […] Following treatment, each plate was read every 5 minutes for the duration of the assay using a microplate reader (MicroLumat Plus). In order to determine the fold change in cAMP relative to the control, the transfection efficiency was first determined by dividing the second pre-read measurement by the average of the corresponding pre-read measurements. Next, the normalized relative light units (RLUs) of the samples were determined by dividing the plate read measurement by the transfection efficiency. The fold change in cAMP relative to the control was then determined by dividing the normalized RLU of the samples by the normalized RLU of the control. The cAMP assay was validated using free treprostinil. […] Luminescence was then measured at room temperature. […]

[3] = Treprostinil alkyl ester conversion to treprostinil in rat lung tissue homogenate; format: in vitro ADME; details: 37° C., 200 nM, 4 hours, 10 mg/mL of protein
Protocol: Treprostinil alkyl ester conversion to treprostinil was also measured in the presence of rat, dog and monkey lung tissue homogenate at 37° C. Here, data were calculated based on fit of exponential increase to the maximum (experiments performed in duplicate). The results of this study are provided below in Table 2A and FIG. 37. […] Both FIG. 37 experiments (left and right graphs) were performed in duplicate and the lines represent nonlinear exponential regression assuming 1 phase decay.

[4] = unformulated alkyl esters, 72 hour incubation
[5] = unformulated alkyl esters, 48 hour incubation

T1 sequence (P43116 whole entry): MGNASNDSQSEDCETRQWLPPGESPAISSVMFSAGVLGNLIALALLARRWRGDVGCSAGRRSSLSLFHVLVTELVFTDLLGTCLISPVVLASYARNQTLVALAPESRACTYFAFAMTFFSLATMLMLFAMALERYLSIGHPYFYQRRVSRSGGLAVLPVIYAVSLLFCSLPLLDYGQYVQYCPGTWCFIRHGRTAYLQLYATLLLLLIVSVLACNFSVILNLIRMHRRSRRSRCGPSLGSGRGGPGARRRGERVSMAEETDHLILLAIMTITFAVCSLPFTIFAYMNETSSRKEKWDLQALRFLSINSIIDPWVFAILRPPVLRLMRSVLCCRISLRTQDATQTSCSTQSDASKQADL

For `CCCCCCOC(=O)COc1cccc2c1C[C@H]1C[C@@H](O)[C@H](CC[C@@H](O)CCCCC)[C@H]1C2` [Compound C6-TR], the “Effect on cell proliferation, NR8383 Cells (0.195 μM-25 μM)” value (“Effect … NR8383 Cells (0.195 μM-25 μM)” for short) [1, 4] was “No detectable cell inhibition” and the “Effect on cell proliferation, CHO-K1 Cells (0.195 μM-25 μM)” value (“Effect … CHO-K1 Cells (0.195 μM-25 μM)” for short) (CHO-K1 cells; [5]) was “No detectable cell inhibition”.

With `CCCCC[C@H](O)CC[C@@H]1[C@H]2Cc3cccc(OCC(=O)OCCC)c3C[C@H]2C[C@H]1O` [Compound C3-TR] the “Effect … NR8383 Cells (0.195 μM-25 μM)” value [1, 4] was “No detectable cell inhibition” and the “Effect … CHO-K1 Cells (0.195 μM-25 μM)” value (CHO-K1 cells; [5]) was “No detectable cell inhibition”.

For `CCCCCC(O)CCC1C(O)CC2Cc3c(cccc3OCC(=O)OC(CCC)CCCC)CC21` (mixture of isomers) [Compound 4C8-TR], the “esterase mediated conversion rate to treprostinil (comparison)” value (“esterase mediated conversion rate” for short) (esterase) was “slower conversion rate than the linear compound C8-TR; also recorded: slower conversion rate than the symmetrical compounds (4C7-TR and 5C9-TR)”.

In the case of `CCCCC[C@H](O)CC[C@@H]1[C@H]2Cc3cccc(OCC(=O)OC(CCC)CCC)c3C[C@H]2C[C@H]1O` [Compound 4C7-TR], the “esterase mediated conversion rate” value (esterase) is reported as “slower conversion rate than the linear compound C8-TR”.

For “treprostinil decyl ester [Compound C10-TR]”, the “polydispersity (% PD)” value [2] was “around 15%”, the “Effect … NR8383 Cells (0.195 μM-25 μM)” value [1] was “No detectable cell inhibition” and the “duration of cAMP levels compared with free treprostinil and the C6, C8, and C12 derivatives” value (EP2 prostanoid receptor; 5 μM, FIG. 4 and FIG. 5) was “sustained significantly longer”. The “cAMP levels compared with free treprostinil” value (EP2 prostanoid receptor; 10 μM, composition, FIG. 3A) was “equivalent to free treprostinil”, the “cAMP levels sustained for” value (EP2 prostanoid receptor; 10 μM, composition, FIG. 3A) was “at least 6 hours” and the “cAMP response compared with the response induced by free treprostinil” value (EP2 prostanoid receptor; compositions, 5 μM, FIG. 4) was “greater than or equivalent to the response induced by free treprostinil”. For the same compound, the cAMP response level (EP2 prostanoid receptor; unformulated compounds, 5 μM, FIG. 5) was “equivalent to free treprostinil” and the “Effect … CHO-K1 Cells (0.195 μM-25 μM)” value (CHO-K1 cells) was “No detectable cell inhibition”.

For `CCCCCC[C@@H](C)OC(=O)COc1cccc2c1C[C@H]1C[C@@H](O)[C@H](CC[C@@H](O)CCCCC)[C@H]1C2` [(R)-2C8-TR], the “esterase mediated conversion rate” value (esterase) was “no significant difference between the conversion rates of R and S isomers”.

For `CCCCCCCCCCCCCCOC(=O)COc1cccc2c1C[C@H]1C[C@@H](O)[C@H](CC[C@@H](O)CCCCC)[C@H]1C2` [Compound C14-TR, tetradecyl-treprostinil], the “polydispersity (% PD)” value [2] was “around 15%”, the “Rate of treprostinil alkyl ester conversion” value [3] was 0.4 nmOL/h * g of protein and the “ranking of activity of the treprostinil compounds” value (EP2 prostanoid receptor) was “C12-TR>C14-TR>5-nonanyl-TR>C16-TR”.

In the case of `CCCCC[C@H](O)CC[C@@H]1[C@H]2Cc3cccc(OCC(=O)OCCCC)c3C[C@H]2C[C@H]1O` [Compound C4-TR], the “Effect … NR8383 Cells (0.195 μM-25 μM)” value [1, 4] is reported as “No detectable cell inhibition” and the “Effect … CHO-K1 Cells (0.195 μM-25 μM)” value (CHO-K1 cells; [5]) is reported as “No detectable cell inhibition”.

In the case of `CCCCC[C@H](O)CC[C@@H]1[C@H]2Cc3cccc(OCC(=O)OCC)c3C[C@H]2C[C@H]1O` [Compound C2-TR, treprostinil ethyl ester], the “Effect … NR8383 Cells (0.195 μM-25 μM)” value [1, 4] is reported as “No detectable cell inhibition” and the “Effect … CHO-K1 Cells (0.195 μM-25 μM)” value (CHO-K1 cells; [5]) is reported as “No detectable cell inhibition”.

For `CCCCC[C@H](O)CC[C@@H]1[C@H]2Cc3cccc(OCC(=O)OC(CCCC)CCCC)c3C[C@H]2C[C@H]1O` [Compound 5C9-TR, 5-nonanyl-treprostinil], the “esterase mediated conversion rate” value (esterase) was “slower conversion rate than the linear compound C8-TR”, the “esterase mediated conversion rate” value (esterase; listed as 5-nonanyl-TR) was “slower conversion rate than linear C8-TR” and the “ranking of activity of the treprostinil compounds” value (EP2 prostanoid receptor) was “C12-TR>C14-TR>5-nonanyl-TR>C16-TR”.

For `CCCCCC[C@H](C)OC(=O)COc1cccc2c1C[C@H]1C[C@@H](O)[C@H](CC[C@@H](O)CCCCC)[C@H]1C2` [(S)-2C8-TR], the “esterase mediated conversion rate” value (esterase) was “no significant difference between the conversion rates of R and S isomers”.

Reference: US11795135B2, “Prostacyclin compounds, compositions and methods of use thereof” (Insmed Incorporated, priority 2013, dated 2023)
